According to patent US20080287396A1, “Phosphonated Fluoroquinolones, Antibacterial Analogs Thereof, and Methods for the Prevention and Treatment of Bone and Joint Infections” (TARGANTA THERAPEUTICA INC., priority 2005, published 2008):
Where two headings read alike, the source gives them in different places.

Experiments:
[1] = Bone powder binding, fluorometric detection; conditions: 1 mg/ml compound, bone meal powder 10 mg/ml in PBS, 37° C., 1 h
How it was run: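 LC/MS method: 100 μM compound in 0.1 M Tris-HCl pH 7, 0.15 M NaCl shaken 10 min with or without ground rat tibia, centrifuged, unbound compound measured in supernatant. Fluorometric method: 1 mg/ml compound in 10 mg/ml bone meal/PBS, 1 h at 37 °C, pellet washed. Supernatant fluoroquinolone read at 280/465 nm; bound amount taken as input minus recovered.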

[2] = Regeneration of drug from bone powder-bound prodrug; assay type: in vitro ADME; conditions: PBS vs serum
[3] = Levels of bisphosphonated prodrugs in rat tibia in vivo; conditions: for half-life: female, CD, tibia (bone); for concentration of prodrug present in bone, in words: single IV bolus (49: 18.8; 52: 15.8; 54: 17.4 mg/kg)
Procedure: In order to investigate the bone binding and rate of decomposition of bisphosphonated fluoroquinolone prodrugs in vivo, rats were treated with bisphosphonated moxifloxacin prodrug 52 or bisphosphonated gatifloxacin prodrug 49 or 54 and the drug content of their tibiae was analyzed at different time points after injection. Female CD rats (age, 57 to 70 days; n=5/group; Charles River, St-Constant, Canada) were administered a single bolus intravenous (tail vein) dose of compound 49, 52 or 54 (dissolved in 0.85% NaCl) at respectively 18.8 mg/kg (equivalent to 9 mg/kg of 15), 15.8 mg/kg (equivalent to 10 mg/kg of 3) and 17.4 mg/kg (equivalent to 10 mg/kg of 15) of body weight. Animals were humanely sacrificed at specified time points after i.v. dosing to evaluate the levels of 49, 52 or 54 in the bone. Tibiae were recovered by dissection, cleaned from soft tissues, ground using a metal ball mill (Retsch MM301™) and kept at −80° C. before determination of the drug concentration of the bone.
The experimentally obtained ground bone powder was suspended in 5% formic acid in methanol (500 mg/1.6 mL). The mixture was vortexed for 10 min and centrifuged for 10 min at 10 000 g. The resulting pellet was dried, weighed and used for the determination of the amount of bisphosphonated prodrug.
For the dosage of the prodrug in the tibia, the standards, QCs (Quality Controls) and blanks were prepared (in duplicate) as follows: to 20 mg of dry blank tibia powder were added a spiking solution (10 μL) of prodrug and 990 μL of buffer (0.1M tris-HCl, pH 7, 0.15M NaCl); the mixture was vortexed for 10 min (RT), centrifuged for 15 min at 10 000 g (RT), the supernatant discarded and the pellet kept for the cleavage procedure. The range of the standards (6 levels) was from 0.05 to 10 μM and the QC levels were 0.075, 0.75 and 7.5 μM.
To each standard, QC, blank and experimental sample tibia bone pellet (20 mg of dry weight) was added 500 μL 6N NaOH for the cleavage of the prodrug into the drug (moxifloxacin 3 or gatifloxacin 15). After an incubation at 50° C. for 1 hour (for 49) or 2 hours (for 52 and 54), the mixture was acidified with 6N HCl (500 μL) and the internal standard (gatifloxacin 15 for 52 and moxifloxacin 3 for 49 and 54) was added. After a centrifugation of 15 min at 10 000 g (RT), the supernatant was extracted on a Strata™ cartridge (30 mg/l ml), using 100% methanol as the eluent. The eluent was evaporated to dryness under a stream of argon and the dried residue was reconstituted in 200 μL of the mobile phase used in the LC/MS analysis by vortexing for 15 min. After centrifugation for 15 min at 10 000 g, 20 μL of the supernatant was injected into the LC/MS analyser.
The quantity of drug resulting from the cleavage of the prodrug was analyzed on an Agilent 1100™ series LC/MSD trap. The supernatant was injected into a Zorbax™ SB-Aq column (2×30 mm, 3.5μ), using 0.1% formic acid in water: 0.1% formic acid in acetonitrile (85:15) as the mobile phase at a flow rate of 0.3 mL/min. […] The detected ions were determined in single reaction mode (SRM).
For the determination of 52, moxifloxacin 3 was analyzed for m/z 402.2 and the internal standard (gatifloxacin 15) for m/z 376.1→332.1.
For the determination of 49 and 54, gatifloxacin 15 was analyzed for m/z 376.1→332.1 and the internal standard (moxifloxacin 3) was analyzed for m/z 402.2.

[4] = rat, single IV bolus (52: 15.8 mg/kg; 54: 17.4 mg/kg), 7-28 days after injection, read-out: half-life of prodrug in bone (tibia) (converted)

| half-life ([3]; rat tibia, IV bolus 15.8 mg/kg, 5 min to 24 h, read-out: half-life for the accumulation process in bone) | SMILES | Binding to bone (%) Fluorescence [1] | effect of the medium (presence or absence of serum) on regeneration rate [2] | half-life [3, 4] | concentration of prodrug present in bone, in words ([3]; rat tibia) |
| --- | --- | --- | --- | --- | --- |
| < 0.0417 days | COc1c(N2C[C@@H]3CCCN[C@@H]3C2)c(F)cc2c(=O)c(C(=O)OCC(=O)NC(P(=O)(O)O)P(=O)(O)O)cn(C3CC3)c12 [Compound 52, (1,1-Bisphosphonomethylcarbamoyl)methyl 1-cyclopropyl-6-fluoro-1,4-dihydro-7-((4aS,7aS)-octahydropyrrolo[3,4-b]pyridin-6-yl)-8-methoxy-4-oxoquinoline-3-carboxylate] | 98.7% | fairly similar rates | 20 days | high concentrations |
| – | COc1c(N2CCNC(C)C2)c(F)cc2c(=O)c(C(=O)OCC(=O)NC(P(=O)(O)O)P(=O)(O)O)cn(C3CC3)c12 (stereo not drawn) [Compound 54, (1,1-Bisphosphonomethylcarbamoyl)methyl 7-(3-methylpiperazin-1-yl)-1-cyclopropyl-6-fluoro-1,4-dihydro-8-methoxy-4-oxoquinoline-3-carboxylate] | 91% | rate deceleration | 21 days | high concentrations |
